Test results: paper PMC12040169 (PLOS Biology, 2025)

assay: in vitro; settings: human, hela cells, % viability

SMILES | viability at 28.5 h, 10 µM [%]
Clc1ccc(-n2c(SCc3nc4ccccc4[nH]3)nnc2-c2ccncc2)cc1 [CBK267557] | 100
COc1ccc(-n2c(SCc3nc4ccccc4[nH]3)nc3sc4c(c3c2=O)CCCC4)cc1 [CBK267558] | 100
O=C(O)c1ccc(CSc2nnc(-c3ccncc3)n2-c2ccc(Br)cc2)cc1 [CBK267559] | 84.9
COc1ccc(NC(=O)CC2Nc3cccc4cccc(c34)NC2=O)cc1 (stereo not shown) [CBK267561] | 93.1
Cn1c(=O)n(C)c2cc(S(=O)(=O)NCCC(=O)O)ccc21 [CBK267565] | 105
O=C(CSc1nnc(SCc2cccc3ccccc23)s1)Nc1ccc(F)c(Cl)c1 [CBK267574] | 92.1
O=C(CSc1nnc(SCc2cccc3ccccc23)s1)c1ccc2c(c1)OCO2 [CBK267576] | 100
CCc1cccc(C)c1NC(=O)CSc1nnc(-c2cccnc2)n1C [CBK267582] | 88.4
Cn1c(SCC(=O)Nc2c(F)cc(F)cc2Br)nnc1-c1cccnc1 [CBK267583] | 90.8
Cn1c(SCC(=O)Nc2c(F)cc(F)cc2Br)nnc1-c1cnccn1 [CBK267584] | 97.6
O=[N+]([O-])c1ccc(CSc2nnc(-c3cnccn3)n2Cc2ccco2)cc1 [CBK267585] | 100
O=[N+]([O-])c1ccc(CSc2nnc(-c3cccs3)n2Cc2ccco2)cc1 [CBK267588] | 86.6
O=C(CSc1nnc(-c2ccccc2F)n1-c1ccccc1)Nc1ccc2cn[nH]c2c1 [CBK267591] | 81.9
COc1ccc([N+](=O)[O-])cc1NC(=O)Nc1ccc(Cl)c(Cl)c1 [CBK267593] | 99.5
O=C(CCN1C(=O)c2ccccc2C1=O)NC(=S)Nc1ccccc1 [CBK267595] | 108
CCOC(=O)c1cc(CC)sc1NC(=O)c1cc2ccccc2o1 [CBK267596] | 88.3
O=C(CSc1nnc(-c2cccnc2)n1-c1cccc(C(F)(F)F)c1)c1ccc(F)cc1 [CBK267599] | 87.9
CCOC(=O)c1ccc(Nc2nnc3nc(C)cc(C)n23)cc1 [CBK267600] | 93.1
Cc1cc(C)n2c(Nc3ccc(S(N)(=O)=O)cc3)nnc2n1 [CBK267601] | 110
CS(=O)(=O)N1CCN(c2ccccc2NC(=O)Cc2ccc(Cl)cc2)CC1 [CBK267605] | 94.9
CCN1CCN(c2c(Cl)cccc2NC(=O)CSc2ccc(Cl)cc2)CC1 [CBK267606] | 90.7

SMILES | viability at 28.5 h, 10 µM [%]
CC(C)C(=O)N1CCN(c2ccccc2NC(=O)c2ccc(N3CCCCC3)c([N+](=O)[O-])c2)CC1 [CBK267609] | 100
Cc1ccc2[nH]c(/C(C#N)=C\c3cc(C)n(-c4ccc(S(N)(=O)=O)cc4)c3C)nc2c1 [CBK267611] | 105
COc1ccc(S(=O)(=O)N2CCC(C(=O)NCc3cccnc3)CC2)cc1Cl [CBK267613] | 95.2
COc1ccc(S(=O)(=O)N2CCC(C(=O)N3CCN(Cc4ccc5c(c4)OCO5)CC3)CC2)cc1Cl [CBK267614] | 86
O=C(COc1ccc(S(=O)(=O)NC2CCCCC2)cc1Cl)Nc1ccc2c(c1)OCO2 [CBK267615] | 90.5
Cc1ccc(NS(=O)(=O)c2ccc(CCC(=O)N3CCc4ccccc4C3)cc2)cc1 [CBK267616] | 94.9
CCOc1ccc(CNc2ccc(CNc3ncn[nH]3)cc2)cc1 [CBK267617] | 91.7
C=CCOc1cccc(CNc2nn[nH]n2)c1 [CBK267618] | 109
Oc1cccc(C(O)CNCc2ccc(OCc3ccc(Cl)cc3Cl)cc2)c1 (stereo not shown) [CBK267621C] | 93
O=C(Nc1ccc(NC(=O)Nc2cccc(Cl)c2)cc1)Nc1cccc(Cl)c1 [CBK267623] | 93.9
CC1CCc2c(sc(NC(=O)c3nc4ncccn4n3)c2C(N)=O)C1 (stereo not shown) [CBK267631] | 96.3
CC1CC(C(F)F)n2nc(C(=O)O)nc2N1 (stereo not shown) [CBK267636] | 99.7
COc1cc(NC(=O)Cn2c(-c3cncs3)nc3ccccc32)cc(OC)c1OC [CBK267640] | 97.2
CC(NC(=O)c1cccc2ccccc12)c1ccc2ccccc2c1 (stereo not shown) [CBK267646] | 90.1
Nc1nonc1-c1nc2ccccc2n1Cc1ccc(-c2nn[nH]n2)cc1 [CBK267648] | 91.3
Cc1ccccc1NS(=O)(=O)c1ccc(OCC(=O)N2CCN(c3cc(Cl)ccc3C)CC2)cc1 [CBK267649] | 94.5
O=C(CSc1nnc(-c2ccc(Cl)cc2Cl)[nH]1)Nc1ccc(F)cc1 [CBK267651] | 96.4
O=C(C1CCCN(S(=O)(=O)c2ccc(F)cc2)C1)N(Cc1ccccc1)Cc1ccccc1 (stereo not shown) [CBK267652] | 108
N#Cc1c(NC(=O)CSc2nnc(-c3ccc(Cl)cc3)o2)oc(-c2ccccc2)c1-c1ccccc1 [CBK267655] | 93.9
CC(C)C(NS(=O)(=O)c1ccc([N+](=O)[O-])cc1)C(C)C [CBK267656] | 94.8
CC(NS(=O)(=O)c1ccc(F)cc1)C(=O)Nc1ccc(C(N)=O)cc1 (stereo not shown) [CBK267658] | 104

SMILES | viability at 28.5 h, 10 µM [%]
CN(C)S(=O)(=O)N(CC(=O)O)c1ccccc1 [CBK267660] | 105
Cc1ccc2c(C)c(C(=O)Nc3ccc(S(N)(=O)=O)cc3)oc2c1 [CBK267661] | 110
Cc1ccc2c(C)c(C(=O)Nc3sc4c(c3C(=O)NCc3ccco3)CCC4)oc2c1 [CBK267662] | 99.2
Cc1c(C(=O)Nc2ccc(S(=O)(=O)N3CCCCCC3)cc2)oc2ccc(Cl)cc12 [CBK267664] | 89.2
NC(=O)Cn1c(=O)n(CCc2ccccc2)c(=O)c2c3c(sc21)CCCC3 [CBK267665] | 103
COC(=O)Cn1c(=O)n(CCc2ccccc2)c(=O)c2c3c(sc21)CCCC3 [CBK267666] | 98.6
COc1ccc(CNc2oc(-c3ccccc3)nc2S(=O)(=O)c2ccccc2)cc1 [CBK267669] | 105
CC(Nc1oc(-c2ccco2)nc1S(=O)(=O)c1ccc(F)cc1)c1ccccc1 (stereo not shown) [CBK267671] | 73.2
O=C(O)CCC(=O)Nc1ccccc1C(=O)NC1CCCCC1 [CBK267674] | 105
O=C(NC1CCCCC1)c1ccccc1NC(=O)C1CCCCC1C(=O)O (stereo not shown) [CBK267675] | 97
Cc1ccccc1C(=O)NCCNC(=O)c1nonc1N [CBK267677] | 103
Cc1ccc(SCC(=O)NCCCN2CCOCC2)cc1 [CBK267678] | 99.3
NC(=O)c1ccccc1NC(=O)CCCN1C(=O)CCC1=O [CBK267680] | 94.1
O=C(CCCCCN1C(=O)CCC1=O)Nc1nc[nH]n1 [CBK267682] | 103
COc1ccc(/C(N)=N/OC(=O)CN(C)S(=O)(=O)c2ccccc2)cc1 [CBK267683] | 93
O=C(CCn1cnc2ccccc2c1=O)Nc1cccc(C(F)(F)F)c1 [CBK267687] | 91.5
CCOC(=O)c1ccc(Cn2c(-c3ccccc3)nnc2-c2ccccc2)o1 [CBK267691] | 87.8
Cn1c(=O)c2c(nc(SCC(=O)CSc3nc4c(c(=O)n(C)c(=O)n4C)n3C)n2C)n(C)c1=O [CBK267692] | 86.9
NS(=O)(=O)c1ccc(NC(=O)CCC2COc3ccccc3O2)cc1 (stereo not shown) [CBK267696] | 87.9
